What was measured:
Format in all cases: binding
broad panel of kinases [1] = biological target: broad panel of kinases (Homo sapiens, UniProt O00141); conditions: SGK; 1 μM
broad panel of kinases [2] = biological target: broad panel of kinases (Homo sapiens, UniProt O15111); conditions: IKK-alpha; 1 μM
broad panel of kinases [3] = biological target: broad panel of kinases (Homo sapiens, UniProt P00533, DEL746-750); conditions: EGFR(E746-A750del); 1 μM
broad panel of kinases [4] = biological target: broad panel of kinases (Homo sapiens, UniProt P00533, L861Q); conditions: EGFR(L861Q); 1 μM
Sequence of broad panel of kinases (Homo sapiens, UniProt P00533, L861Q) (P00533 25-1210 L861Q limits assumed): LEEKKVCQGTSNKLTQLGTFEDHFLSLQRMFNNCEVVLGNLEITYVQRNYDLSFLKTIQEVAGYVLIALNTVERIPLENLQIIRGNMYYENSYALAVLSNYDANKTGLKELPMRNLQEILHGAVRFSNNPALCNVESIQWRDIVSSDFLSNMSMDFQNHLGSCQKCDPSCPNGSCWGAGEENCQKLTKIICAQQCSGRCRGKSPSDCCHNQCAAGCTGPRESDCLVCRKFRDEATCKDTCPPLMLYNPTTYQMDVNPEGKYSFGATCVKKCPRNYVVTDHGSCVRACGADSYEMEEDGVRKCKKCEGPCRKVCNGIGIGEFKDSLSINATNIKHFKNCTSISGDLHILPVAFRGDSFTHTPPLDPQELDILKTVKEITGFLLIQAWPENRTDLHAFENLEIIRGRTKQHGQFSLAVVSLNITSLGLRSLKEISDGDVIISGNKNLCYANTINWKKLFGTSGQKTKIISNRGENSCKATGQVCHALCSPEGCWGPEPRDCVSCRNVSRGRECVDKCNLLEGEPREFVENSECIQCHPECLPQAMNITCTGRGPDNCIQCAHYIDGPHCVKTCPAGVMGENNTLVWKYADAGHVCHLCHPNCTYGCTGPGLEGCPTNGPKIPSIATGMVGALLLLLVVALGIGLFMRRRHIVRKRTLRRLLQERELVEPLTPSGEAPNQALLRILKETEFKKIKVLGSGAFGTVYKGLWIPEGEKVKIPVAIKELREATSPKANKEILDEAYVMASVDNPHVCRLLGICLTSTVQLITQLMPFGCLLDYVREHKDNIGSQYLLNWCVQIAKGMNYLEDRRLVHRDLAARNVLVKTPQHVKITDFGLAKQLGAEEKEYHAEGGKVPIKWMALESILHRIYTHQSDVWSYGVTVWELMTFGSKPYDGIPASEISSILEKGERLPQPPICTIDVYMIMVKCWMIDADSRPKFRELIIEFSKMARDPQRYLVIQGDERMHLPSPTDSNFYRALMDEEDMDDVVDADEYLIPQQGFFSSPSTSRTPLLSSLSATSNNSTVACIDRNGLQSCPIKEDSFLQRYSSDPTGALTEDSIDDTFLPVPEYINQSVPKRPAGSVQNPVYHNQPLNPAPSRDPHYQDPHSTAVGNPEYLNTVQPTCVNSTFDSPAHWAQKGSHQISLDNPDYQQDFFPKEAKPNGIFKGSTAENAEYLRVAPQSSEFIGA

broad panel of kinases [5] = biological target: broad panel of kinases (Homo sapiens, UniProt P06239); conditions: LCK; 1 μM
broad panel of kinases [6] = biological target: broad panel of kinases (Homo sapiens, UniProt P15056, V600E); conditions: BRAF(V600E); 1 μM
Sequence of broad panel of kinases (Homo sapiens, UniProt P15056, V600E) (P15056 2-766 V600E limits assumed): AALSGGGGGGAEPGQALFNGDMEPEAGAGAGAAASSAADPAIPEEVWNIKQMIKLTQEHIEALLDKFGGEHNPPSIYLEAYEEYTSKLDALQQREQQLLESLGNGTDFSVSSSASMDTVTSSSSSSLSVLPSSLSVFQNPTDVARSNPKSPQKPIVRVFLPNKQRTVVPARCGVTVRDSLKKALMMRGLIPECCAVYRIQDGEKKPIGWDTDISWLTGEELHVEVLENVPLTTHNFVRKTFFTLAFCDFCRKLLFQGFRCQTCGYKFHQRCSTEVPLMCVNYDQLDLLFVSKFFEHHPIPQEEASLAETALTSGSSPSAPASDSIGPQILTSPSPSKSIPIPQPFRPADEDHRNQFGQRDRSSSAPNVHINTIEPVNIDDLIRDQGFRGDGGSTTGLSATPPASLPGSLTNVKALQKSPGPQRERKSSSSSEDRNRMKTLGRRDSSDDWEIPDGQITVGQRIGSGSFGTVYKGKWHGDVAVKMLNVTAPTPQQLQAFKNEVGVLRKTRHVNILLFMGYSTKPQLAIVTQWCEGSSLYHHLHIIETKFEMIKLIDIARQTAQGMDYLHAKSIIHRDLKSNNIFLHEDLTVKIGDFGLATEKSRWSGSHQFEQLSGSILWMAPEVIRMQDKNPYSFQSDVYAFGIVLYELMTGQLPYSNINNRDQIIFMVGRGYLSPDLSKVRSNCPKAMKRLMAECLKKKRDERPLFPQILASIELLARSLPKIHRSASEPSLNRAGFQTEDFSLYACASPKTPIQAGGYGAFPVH

broad panel of kinases [7] = biological target: broad panel of kinases (Homo sapiens, UniProt P17948); conditions: FLT1; 1 μM
Sequence of broad panel of kinases (Homo sapiens, UniProt P17948) (P17948 27-1338 limits assumed): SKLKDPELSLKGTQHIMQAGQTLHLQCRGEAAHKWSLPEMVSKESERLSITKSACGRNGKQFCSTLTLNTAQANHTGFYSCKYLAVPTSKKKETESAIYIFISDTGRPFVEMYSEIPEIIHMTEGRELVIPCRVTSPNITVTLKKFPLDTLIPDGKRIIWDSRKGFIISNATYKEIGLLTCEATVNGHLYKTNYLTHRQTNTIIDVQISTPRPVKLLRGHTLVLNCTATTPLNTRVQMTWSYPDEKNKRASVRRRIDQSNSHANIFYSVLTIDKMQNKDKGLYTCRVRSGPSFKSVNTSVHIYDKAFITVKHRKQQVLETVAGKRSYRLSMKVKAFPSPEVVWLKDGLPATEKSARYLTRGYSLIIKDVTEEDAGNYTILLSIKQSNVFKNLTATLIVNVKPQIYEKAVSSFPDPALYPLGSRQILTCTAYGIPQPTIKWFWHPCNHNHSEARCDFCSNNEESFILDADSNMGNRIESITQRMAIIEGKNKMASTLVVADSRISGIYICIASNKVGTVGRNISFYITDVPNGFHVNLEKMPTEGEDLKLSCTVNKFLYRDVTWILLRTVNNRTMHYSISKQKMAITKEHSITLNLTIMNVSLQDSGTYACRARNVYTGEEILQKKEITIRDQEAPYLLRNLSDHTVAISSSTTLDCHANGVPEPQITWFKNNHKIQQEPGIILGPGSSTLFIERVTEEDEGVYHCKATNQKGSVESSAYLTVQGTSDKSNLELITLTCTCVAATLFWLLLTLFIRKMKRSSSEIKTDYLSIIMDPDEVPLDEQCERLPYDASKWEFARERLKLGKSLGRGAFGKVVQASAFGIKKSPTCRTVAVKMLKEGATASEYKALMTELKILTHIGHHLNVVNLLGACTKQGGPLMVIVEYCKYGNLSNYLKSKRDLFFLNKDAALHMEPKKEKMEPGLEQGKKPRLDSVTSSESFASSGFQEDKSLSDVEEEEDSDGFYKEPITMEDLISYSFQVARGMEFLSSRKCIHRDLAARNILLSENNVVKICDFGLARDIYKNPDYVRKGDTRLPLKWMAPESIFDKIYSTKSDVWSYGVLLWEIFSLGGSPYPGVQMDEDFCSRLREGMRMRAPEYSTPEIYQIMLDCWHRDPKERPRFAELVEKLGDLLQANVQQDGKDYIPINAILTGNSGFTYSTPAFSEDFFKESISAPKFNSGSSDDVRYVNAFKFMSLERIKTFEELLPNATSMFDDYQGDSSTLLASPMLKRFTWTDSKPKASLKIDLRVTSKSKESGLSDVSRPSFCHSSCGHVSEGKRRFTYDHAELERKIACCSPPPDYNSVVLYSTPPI

broad panel of kinases [8] = biological target: broad panel of kinases (Homo sapiens, UniProt P20794); conditions: MAK; 1 μM
broad panel of kinases [9] = biological target: broad panel of kinases (Homo sapiens, UniProt P24941); conditions: CDK2; 1 μM
broad panel of kinases [10] = biological target: broad panel of kinases (Homo sapiens, UniProt P35916); conditions: FLT4; 1 μM
Sequence of broad panel of kinases (Homo sapiens, UniProt P35916) (P35916 25-1363 limits assumed): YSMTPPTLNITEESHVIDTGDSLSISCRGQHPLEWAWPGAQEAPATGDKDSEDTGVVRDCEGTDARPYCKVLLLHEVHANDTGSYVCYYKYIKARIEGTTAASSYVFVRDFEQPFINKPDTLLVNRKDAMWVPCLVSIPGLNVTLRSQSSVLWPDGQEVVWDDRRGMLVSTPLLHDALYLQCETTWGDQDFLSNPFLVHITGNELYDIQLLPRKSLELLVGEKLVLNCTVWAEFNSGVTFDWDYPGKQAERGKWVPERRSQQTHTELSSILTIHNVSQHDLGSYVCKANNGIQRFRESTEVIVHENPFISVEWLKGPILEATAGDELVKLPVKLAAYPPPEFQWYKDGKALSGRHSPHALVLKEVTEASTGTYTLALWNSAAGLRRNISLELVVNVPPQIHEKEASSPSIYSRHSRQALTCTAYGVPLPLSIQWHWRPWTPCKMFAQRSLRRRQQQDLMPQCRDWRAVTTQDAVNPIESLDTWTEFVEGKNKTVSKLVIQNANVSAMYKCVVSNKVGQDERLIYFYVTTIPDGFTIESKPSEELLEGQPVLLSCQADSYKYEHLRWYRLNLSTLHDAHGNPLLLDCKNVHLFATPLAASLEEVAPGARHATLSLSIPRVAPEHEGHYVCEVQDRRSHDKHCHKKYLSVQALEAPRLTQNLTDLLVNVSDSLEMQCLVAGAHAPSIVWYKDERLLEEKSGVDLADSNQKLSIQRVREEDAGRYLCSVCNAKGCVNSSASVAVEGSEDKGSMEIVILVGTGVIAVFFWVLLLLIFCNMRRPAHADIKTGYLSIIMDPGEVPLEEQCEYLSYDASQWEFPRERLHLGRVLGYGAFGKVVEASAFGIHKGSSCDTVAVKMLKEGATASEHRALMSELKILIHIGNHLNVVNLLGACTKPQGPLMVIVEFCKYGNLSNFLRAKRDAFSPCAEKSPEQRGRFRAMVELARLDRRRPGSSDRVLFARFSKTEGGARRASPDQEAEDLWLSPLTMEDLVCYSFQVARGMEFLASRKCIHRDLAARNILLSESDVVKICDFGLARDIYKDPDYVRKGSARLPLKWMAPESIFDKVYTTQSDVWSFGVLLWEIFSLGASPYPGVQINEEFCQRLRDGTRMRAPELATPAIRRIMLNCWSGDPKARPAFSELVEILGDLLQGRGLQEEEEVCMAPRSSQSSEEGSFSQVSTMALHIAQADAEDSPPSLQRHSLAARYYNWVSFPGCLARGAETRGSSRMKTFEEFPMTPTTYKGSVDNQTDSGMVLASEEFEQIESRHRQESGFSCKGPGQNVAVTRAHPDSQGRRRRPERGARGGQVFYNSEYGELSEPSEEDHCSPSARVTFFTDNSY

broad panel of kinases [11] = biological target: broad panel of kinases (Homo sapiens, UniProt P36888, D835Y); conditions: FLT3(D835Y); 1 μM
broad panel of kinases [12] = biological target: broad panel of kinases (Homo sapiens, UniProt P37023); conditions: ACVRL1; 1 μM
Sequence of broad panel of kinases (Homo sapiens, UniProt P37023) (P37023 22-503 limits assumed): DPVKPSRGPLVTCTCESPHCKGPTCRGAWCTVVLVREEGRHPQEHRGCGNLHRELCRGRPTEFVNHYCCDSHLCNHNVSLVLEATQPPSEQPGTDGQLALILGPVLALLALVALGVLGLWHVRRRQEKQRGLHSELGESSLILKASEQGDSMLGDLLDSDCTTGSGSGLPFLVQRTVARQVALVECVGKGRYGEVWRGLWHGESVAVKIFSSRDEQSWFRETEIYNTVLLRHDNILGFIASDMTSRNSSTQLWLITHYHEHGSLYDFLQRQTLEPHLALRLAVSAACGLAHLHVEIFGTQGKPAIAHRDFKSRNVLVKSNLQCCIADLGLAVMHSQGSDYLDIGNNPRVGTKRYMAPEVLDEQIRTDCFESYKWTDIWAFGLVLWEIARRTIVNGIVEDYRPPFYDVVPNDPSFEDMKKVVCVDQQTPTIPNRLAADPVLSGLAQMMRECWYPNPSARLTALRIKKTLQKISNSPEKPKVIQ

broad panel of kinases [13] = biological target: broad panel of kinases (Homo sapiens, UniProt P42336, E542K); conditions: PIK3CA(E542K); 1 μM
broad panel of kinases [14] = biological target: broad panel of kinases (Homo sapiens, UniProt P42338); conditions: PIK3CB; 1 μM
broad panel of kinases [15] = biological target: broad panel of kinases (Homo sapiens, UniProt P42345); conditions: MTOR; 1 μM
broad panel of kinases [16] = biological target: broad panel of kinases (Homo sapiens, UniProt P51817); conditions: PRKX; 1 μM
broad panel of kinases [17] = biological target: broad panel of kinases (Homo sapiens, UniProt P52564); conditions: MEK6; 1 μM
broad panel of kinases [18] = biological target: broad panel of kinases (Homo sapiens, UniProt P53671); conditions: LIMK2; 1 μM
broad panel of kinases [19] = biological target: broad panel of kinases (Homo sapiens, UniProt P54760); conditions: EPHB4; 1 μM
broad panel of kinases [20] = biological target: broad panel of kinases (Homo sapiens, UniProt Q00536); conditions: PCTK1; 1 μM
broad panel of kinases [21] = biological target: broad panel of kinases (Homo sapiens, UniProt Q02750); conditions: MEK1; 1 μM
broad panel of kinases [22] = biological target: broad panel of kinases (Homo sapiens, UniProt Q13163); conditions: MEK5; 1 μM
broad panel of kinases [23] = biological target: broad panel of kinases (Homo sapiens, UniProt Q13554); conditions: CAMK2B; 1 μM
broad panel of kinases [24] = biological target: broad panel of kinases (Homo sapiens, UniProt Q16816); conditions: PHKG1; 1 μM
broad panel of kinases [25] = biological target: broad panel of kinases (Homo sapiens, UniProt Q86Y07); conditions: VRK2; 1 μM
broad panel of kinases [26] = biological target: broad panel of kinases (Homo sapiens, UniProt Q8IVW4); conditions: CDKL3; 1 μM
broad panel of kinases [27] = biological target: broad panel of kinases (Homo sapiens, UniProt Q8IY84); conditions: NIM1; 1 μM
broad panel of kinases [28] = biological target: broad panel of kinases (Homo sapiens, UniProt Q92772); conditions: CDKL2; 1 μM
broad panel of kinases [29] = biological target: broad panel of kinases (Homo sapiens, UniProt Q96D53); conditions: ADCK4; 1 μM
broad panel of kinases [30] = biological target: broad panel of kinases (Homo sapiens, UniProt Q9BX84); conditions: TRPM6; 1 μM
broad panel of kinases [31] = biological target: broad panel of kinases (Homo sapiens, UniProt Q9H3Y6); conditions: SRMS; 1 μM
broad panel of kinases [32] = biological target: broad panel of kinases (Homo sapiens, UniProt Q9NQU5); conditions: PAK6; 1 μM
broad panel of kinases [33] = biological target: broad panel of kinases (Homo sapiens, UniProt Q9NYY3); conditions: PLK2; 1 μM
broad panel of kinases [34] = biological target: broad panel of kinases (Homo sapiens, UniProt Q9P0L2); conditions: MARK1; 1 μM
broad panel of kinases [35] = biological target: broad panel of kinases (Homo sapiens, UniProt Q9UPE1); conditions: SRPK3; 1 μM
broad panel of kinases [36] = biological target: broad panel of kinases (Homo sapiens, UniProt Q9UQ88); conditions: CDC2L2; 1 μM
broad panel of kinases [37] = biological target: broad panel of kinases (Homo sapiens, UniProt Q9UQB9); conditions: AURKC; 1 μM

With `C=CC(=O)N1CC[C@H](Nc2nc(CN3CCOCC3)cc(Nc3ncc(C(=O)Nc4c(C)cccc4C)s3)n2)C1` [Example I-2] the “percent of control binding remaining (lower = stronger binding)” value (broad panel of kinases [1]) was 56%, the “percent of control binding remaining (lower = stronger binding)” value (broad panel of kinases [2]) was 93% and the “percent of control binding remaining (lower = stronger binding)” value (broad panel of kinases [3]) was 3.7%. For the same molecule, the “percent of control binding remaining (lower = stronger binding)” value (broad panel of kinases [4]) was 1.3%, the “percent of control binding remaining (lower = stronger binding)” value (broad panel of kinases [5]) was 0.65% and the “percent of control binding remaining (lower = stronger binding)” value (broad panel of kinases [6]) was 1.6%. For the same molecule, the “percent of control binding remaining (lower = stronger binding)” value (broad panel of kinases [7]) was 93%, the “percent of control binding remaining (lower = stronger binding)” value (broad panel of kinases [8]) was 100% and the “percent of control binding remaining (lower = stronger binding)” value (broad panel of kinases [9]) was 100%. For the same molecule, the “percent of control binding remaining (lower = stronger binding)” value (broad panel of kinases [10]) was 95%, the “percent of control binding remaining (lower = stronger binding)” value (broad panel of kinases [11]) was 97% and the “percent of control binding remaining (lower = stronger binding)” value (broad panel of kinases [12]) was 54%. For the same molecule, the “percent of control binding remaining (lower = stronger binding)” value (broad panel of kinases [13]) was 92%, the “percent of control binding remaining (lower = stronger binding)” value (broad panel of kinases [14]) was 100% and the “percent of control binding remaining (lower = stronger binding)” value (broad panel of kinases [15]) was 100%. For the same molecule, the “percent of control binding remaining (lower = stronger binding)” value (broad panel of kinases [16]) was 100%, the “percent of control binding remaining (lower = stronger binding)” value (broad panel of kinases [17]) was 82% and the “percent of control binding remaining (lower = stronger binding)” value (broad panel of kinases [18]) was 51%. The “percent of control binding remaining (lower = stronger binding)” value (broad panel of kinases [19]) was 0%, the “percent of control binding remaining (lower = stronger binding)” value (broad panel of kinases [20]) was 97% and the “percent of control binding remaining (lower = stronger binding)” value (broad panel of kinases [21]) was 67%. The “percent of control binding remaining (lower = stronger binding)” value (broad panel of kinases [22]) was 0.25%, the “percent of control binding remaining (lower = stronger binding)” value (broad panel of kinases [23]) was 84% and the “percent of control binding remaining (lower = stronger binding)” value (broad panel of kinases [24]) was 100%. The “percent of control binding remaining (lower = stronger binding)” value (broad panel of kinases [25]) was 94%, the “percent of control binding remaining (lower = stronger binding)” value (broad panel of kinases [26]) was 98% and the “percent of control binding remaining (lower = stronger binding)” value (broad panel of kinases [27]) was 93%. For the same molecule, the “percent of control binding remaining (lower = stronger binding)” value (broad panel of kinases [28]) was 88%, the “percent of control binding remaining (lower = stronger binding)” value (broad panel of kinases [29]) was 95% and the “percent of control binding remaining (lower = stronger binding)” value (broad panel of kinases [30]) was 61%. For the same molecule, the “percent of control binding remaining (lower = stronger binding)” value (broad panel of kinases [31]) was 7.6%, the “percent of control binding remaining (lower = stronger binding)” value (broad panel of kinases [32]) was 93% and the “percent of control binding remaining (lower = stronger binding)” value (broad panel of kinases [33]) was 92%. For the same molecule, the “percent of control binding remaining (lower = stronger binding)” value (broad panel of kinases [34]) was 97%, the “percent of control binding remaining (lower = stronger binding)” value (broad panel of kinases [35]) was 100% and the “percent of control binding remaining (lower = stronger binding)” value (broad panel of kinases [36]) was 92%. The “percent of control binding remaining (lower = stronger binding)” value (broad panel of kinases [37]) was 90%.

For `C=CC(=O)N1CC[C@H](Nc2nccc(Nc3ncc(C(=O)Nc4c(C)cccc4C)s3)n2)C1` [Example I-3], the “percent of control binding remaining (lower = stronger binding)” value (broad panel of kinases [1]) was 61%, the “percent of control binding remaining (lower = stronger binding)” value (broad panel of kinases [2]) was 100% and the “percent of control binding remaining (lower = stronger binding)” value (broad panel of kinases [3]) was 2.9%. For the same molecule, the “percent of control binding remaining (lower = stronger binding)” value (broad panel of kinases [4]) was 0.8%, the “% change compared to control” value (broad panel of kinases [5]) was 0.55% and the “percent of control binding remaining (lower = stronger binding)” value (broad panel of kinases [6]) was 2.1%. The “percent of control binding remaining (lower = stronger binding)” value (broad panel of kinases [7]) was 86%, the “percent of control binding remaining (lower = stronger binding)” value (broad panel of kinases [8]) was 100% and the “percent of control binding remaining (lower = stronger binding)” value (broad panel of kinases [9]) was 100%. The “percent of control binding remaining (lower = stronger binding)” value (broad panel of kinases [10]) was 100%, the “percent of control binding remaining (lower = stronger binding)” value (broad panel of kinases [11]) was 100% and the “percent of control binding remaining (lower = stronger binding)” value (broad panel of kinases [12]) was 76%. For the same molecule, the “percent of control binding remaining (lower = stronger binding)” value (broad panel of kinases [13]) was 100%, the “percent of control binding remaining (lower = stronger binding)” value (broad panel of kinases [14]) was 100% and the “percent of control binding remaining (lower = stronger binding)” value (broad panel of kinases [15]) was 100%. The “percent of control binding remaining (lower = stronger binding)” value (broad panel of kinases [16]) was 100%, the “percent of control binding remaining (lower = stronger binding)” value (broad panel of kinases [17]) was 89% and the “percent of control binding remaining (lower = stronger binding)” value (broad panel of kinases [18]) was 65%. The “percent of control binding remaining (lower = stronger binding)” value (broad panel of kinases [19]) was 0%, the “percent of control binding remaining (lower = stronger binding)” value (broad panel of kinases [20]) was 100% and the “percent of control binding remaining (lower = stronger binding)” value (broad panel of kinases [21]) was 100%. The “percent of control binding remaining (lower = stronger binding)” value (broad panel of kinases [22]) was 0.45%, the “percent of control binding remaining (lower = stronger binding)” value (broad panel of kinases [23]) was 81% and the “percent of control binding remaining (lower = stronger binding)” value (broad panel of kinases [24]) was 99%. For the same molecule, the “percent of control binding remaining (lower = stronger binding)” value (broad panel of kinases [25]) was 70%, the “percent of control binding remaining (lower = stronger binding)” value (broad panel of kinases [26]) was 81% and the “percent of control binding remaining (lower = stronger binding)” value (broad panel of kinases [27]) was 84%. For the same molecule, the “percent of control binding remaining (lower = stronger binding)” value (broad panel of kinases [28]) was 78%, the “percent of control binding remaining (lower = stronger binding)” value (broad panel of kinases [29]) was 92% and the “percent of control binding remaining (lower = stronger binding)” value (broad panel of kinases [30]) was 63%. For the same molecule, the “percent of control binding remaining (lower = stronger binding)” value (broad panel of kinases [31]) was 12%, the “percent of control binding remaining (lower = stronger binding)” value (broad panel of kinases [32]) was 84% and the “percent of control binding remaining (lower = stronger binding)” value (broad panel of kinases [33]) was 76%. The “percent of control binding remaining (lower = stronger binding)” value (broad panel of kinases [34]) was 93%, the “percent of control binding remaining (lower = stronger binding)” value (broad panel of kinases [35]) was 97% and the “percent of control binding remaining (lower = stronger binding)” value (broad panel of kinases [36]) was 93%. The “percent of control binding remaining (lower = stronger binding)” value (broad panel of kinases [37]) was 71%.

Reference: patent US10844077B2, “Thiazolyl-containing compounds for treating proliferative diseases” (Dana-Farber Cancer Institute, Inc., priority 2014, dated 2020)
